{
  "source": "patent US20070116778A1",
  "about": "(priority 2005, published 2007)",
  "origin": "cited, not measured here",
  "key": {"[1]": {"system": "Neisseria gonorrhoae"}, "[2]": {"system": "HIV", "settings": "human, in vivo"}},
  "data": [
    {"smiles": "CCCCCCCCCCCC(=O)OCC(O)CO", "note": "(stereo not drawn) [Monolaurin]", "values": [
      {"measurement": "effect on the pathogen", "setting": "[1]", "result": "dissolves the outer lipid membrane and interferes with transcriptinase production"},
      {"measurement": "patients with reduced viral load", "setting": "[2]", "result": 8, "unit": "patients"},
      {"measurement": "side effects", "setting": "[2]", "result": "without any side effects"}
    ]}
  ]
}
